Assay results taken from patent US20250109165A1, “CYCLOPHILIN INHIBITORS AND USES THEREOF” (The Broad Institute, Inc., priority 2022, published 2025).
Several values for one entry are separate records, joined by “and”; a condition that tells them apart may be missing. Equal values may be shown once. Read-outs that look alike come from different tables or passages of the source.

Assays:
CypE [1] = biological target: T1, CypE (Homo sapiens, UniProt Q9UNP9); experiment: Competition anisotropy (fluorescence polarization) binding assay with A26-Fl; details: for CypE binding in FP competition (in words): compared to C3A
T1 construct: PPIE (UniProtKB Entry Q9UNP9: res 131-301); host or cells: E. coli BL21(DE3)
Experimental: (§1) Competition anisotropy binding assay with A26-Fl: Adapted from previous work^54, into a flat-bottom black untreated 96 well plate (Corning), cyclophilin in assay buffer (25 mM HEPES pH 8.0, 100 mM NaCl, 0.01% Triton X-100) at a predetermined concentration from FIG. 27 was incubated with 0.5 nM A26-Fl for 10 minutes at room temperature. Competitor macrocycle was then added to each well and incubated for 24 hours. Final assay volume was 100 μL with 0.25% DMSO. Fluorescence anisotropy was then measured using a Tecan Spark® plate reader using 492 nm/523 nm excitation/emission settings. Raw fluorescence polarization data was normalized to protein+fluorescent probe and buffer+fluorescent probe and Ki values were calculated using one site-competitive binding equation with Prism 9, importing Kd values from A26-Fl (FIGS. 12A-12C).

CypE [2] = biological target: T1, CypE; experiment: Chymotrypsin coupled prolyl-isomerase assay; format: biochemical; details: for IC50: wild-type CypE
Experimental: (§2) IC50 values were calculated to be the value at which 50% inhibition was achieved on each compound's non-linear regression fitted curve.

CypE [3] = biological target: T1, CypE; experiment: Assessment of covalent modification by mass spectrometry; details: after treatment with NaCNBH3
Experimental: Assessment of covalent modification of CypE and other cyclophilin proteins: Into PCR strip, CypE or other cyclophilin in assay buffer (25 mM HEPES pH 8.0, 100 mM NaCl, 0.01% Triton X-100) was incubated with compound for 1 hour at room temperature. Final concentrations were 20 μM CypE, 100 μM compound, 0.5% DMSO, at a final volume of 20 μL. For analysis of lysine-iminoboronate modification, samples were directly submitted to Harvard's Center for Mass Spectroscopy for LC-MS analysis. For amine-lysine modification, samples were treated with 5 μL of 125 mM sodium cyanoborohydride dissolved in 25 mM Ammonium bicarbonate solution (pH 8.0) and incubated for 4 hours at room temperature. For all other wild-type cyclophilins, protein was treated for 4 hours with C3A, followed by 16 hour treatment with NaCNBH3. Final [NaCNBH3]=25 mM. Samples were then submitted for LC-MS as described above.

[4] = tested on: mPTP opening in isolated mouse liver mitochondria; experiment: Mitochondrial calcium retention capacity assay; format: cell-based; details: 2 μM CsA, 10 μM B52-Cy5, 10 μM *B52-Cy5, 20 μM B53-Cy5, 20 μM *B53-Cy5; pulses of 60 μM CaCl2; compared to DMSO control
Experimental: Isolation of mouse liver mitochondria: All procedures used in animal studies were approved by the Institutional Animal Care and Use Committee at Massachusetts General Hospital. Female C57B1/6 J mice (Jackson Labs) age 10-12 weeks were anesthetized by isoflurane. The liver from one mouse was rinsed in ice-cold PBS, minced in ice-cold isolation buffer containing 0.28 M sucrose, 10 mM Hepes-KOH pH 7.2, 0.2 mM EDTA and 1% (w/v) BSA, gently homogenized with 4 strokes of a tight-fitting Teflon pestle at 1000 rpm, and then centrifuged for 10 minutes at 600 g at 4° C. The supernatant was recovered and centrifuged for 10 minutes at 8000 g at 4° C. The loose outer buffy coat was rinsed off and the pellet resuspended gently in isolation buffer and the spins were repeated. […] The suspension was kept on ice and all assays performed within 4-6 hours following isolation. Quality control was done with every preparation by adding 250 mcg mitochondria to 500 μl of assay buffer containing 137 mM KCl, 10 mM Hepes-KOH pH 7.2, 2.5 mM MgCl2, 5 mM each of glutamate and malate, and 3 mM KH2PO4. Sequential 150 μM ADP pulses were then delivered. Preparations with respiratory control ratio>6 (as assessed by the ratio of ADP-coupled state 3 respiration to state 4 respiration) were used for further experiments. Measurements were made in a custom-built fluorimeter using a cuvette with a Red Eye oxygen patch (Ocean Optics) and an optical probe that is connected to the fluorimeter.
Mitochondrial calcium retention capacity assays: 250 mcg of mouse liver mitochondria isolated as above were added to […] of assay buffer containing 125 mM KCl, 20 mM Hepes-KOH pH 7.2, 1 mM MgCl2, 5 mM each of glutamate and malate, and 3 mM KH2PO4. 0.5 μM Calcium Green-5N (Molecular Probes) was included to monitor extramitochondrial free Ca^2+. Fluorescence was continuously monitored in the custom-built fluorimeter described above, with excitation 470 nm and emission […]. Sequential 60 μM CaCl2) pulses were delivered until Ca^2+ uptake ceased and an abrupt release of previously taken up Ca^2+ was observed, consistent with mPTP opening. The calcium retention capacity ratio (CRC) was obtained by normalizing the number of Ca^2+ pulses that could be taken up in a given condition by that taken up under DMSO control conditions, as previously described^72.

HeLa cells = experiment: Fluorescence microscopy on HeLa cells; format: cell-based, human; details: Cy5 labeled compound 6 μM
Experimental: Fluorescence microscopy on Hela cells. Into 96 well black, clear bottom TC treated plates, cells were seeded in Dulbecco's Modified Eagle Medium (DMEM) supplemented with 10% fetal bovine serum 24 hours prior at a density where wells were ˜80% confluent at time of experiment. Media was removed and cells were then stained with 50 μL of mixture containing Cy5 labeled compound (6 μM) in Kreb's ringer solution HEPES buffered pH 7.2 (KRB), for 1 hour at 37° C. Then, 50 μL Hoechst 33342 (8 μM) and Mitotracker Green FM (0.1 μM) in KRB was added directly to wells containing cells and incubated for 15 minutes at 37° C. Media was removed and cells were washed two times with 100 μL KRB. Cells were then kept adherent to the wells in 100 μL KRB for imaging. Fluorescence microscopy was conducted on an Opera Phenix Plus High-Content Screening System, using Alexa 488, Alexa 647, and Hoescht 33342 channels. Images were analyzed using Harmony 4.9.

CypD = biological target: T2, CypD (Homo sapiens, UniProt P30405); experiment: Chymotrypsin coupled prolyl-isomerase assay; format: biochemical
T2 construct: PPIF (UniProtKB Entry P30405: res 45-207); made in house; host or cells: E. coli BL21(DE3)
Experimental: as §2

cyclophilins = experiment: Prolyl-isomerase inhibition screen on cyclophilins and cyclophilin mutants; format: biochemical, human
Experimental: as §2

CypE K217A [5] = biological target: T3, CypE K217A (Homo sapiens, UniProt Q9UNP9, K217A); experiment: Competition anisotropy (fluorescence polarization) binding assay with A26-Fl
T3 construct: Lane 5-GS-CypE K217A (131-301); His6 tag (N, cleaved yes); made in house; host or cells: E. coli BL21(DE3)
Experimental: as §1

CypE K217A [6] = biological target: T3, CypE K217A; experiment: Chymotrypsin coupled prolyl-isomerase assay; format: biochemical
Experimental: as §2

T3 sequence (Q9UNP9 131-301 K217A): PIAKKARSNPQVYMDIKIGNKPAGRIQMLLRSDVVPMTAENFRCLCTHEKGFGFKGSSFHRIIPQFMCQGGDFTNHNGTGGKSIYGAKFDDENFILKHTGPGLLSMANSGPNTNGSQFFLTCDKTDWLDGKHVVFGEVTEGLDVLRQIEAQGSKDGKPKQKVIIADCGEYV
T1 sequence (Q9UNP9 131-301): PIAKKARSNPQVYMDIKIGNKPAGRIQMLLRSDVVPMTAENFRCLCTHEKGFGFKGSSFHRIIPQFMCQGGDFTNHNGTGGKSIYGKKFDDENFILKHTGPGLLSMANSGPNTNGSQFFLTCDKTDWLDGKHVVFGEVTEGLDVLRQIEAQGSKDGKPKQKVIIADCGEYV
T2 sequence (P30405 45-207): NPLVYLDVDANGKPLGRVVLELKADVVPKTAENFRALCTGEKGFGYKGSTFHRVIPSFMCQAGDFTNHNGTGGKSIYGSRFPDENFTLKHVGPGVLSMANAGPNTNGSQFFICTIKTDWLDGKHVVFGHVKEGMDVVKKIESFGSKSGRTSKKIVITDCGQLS

CypD prolyl-isomerase inhibition (in words) (CypD) | inhibition of cyclophilins tested (in words) (cyclophilins) | Structure (SMILES) | CypE binding in FP competition (in words) (CypE [1]) | CypE potency and selectivity in prolyl isomerase assay (in words) (CypE [2]) | mass shift of covalent adduct with CypE (CypE [3]) | calcium retention capacity prior to mPTP opening [4] | mitochondrial localization (overlap with Mitotracker Green) (HeLa cells) | further results
– | – | NC(=O)[C@@H]1CCNC(=O)/C=C/C(=O)N2CCC[C@](Cc3ccccc3)(C2)C(=O)N[C@@H](Cc2ccc(-c3ccc(C=O)cc3)cc2)C(=O)NCc2ccccc2CC(=O)N1 [Compound C5A] | attenuated inhibition of CypE | loss in CypE potency and promiscuous cyclophilin inhibition | 806 Da and 780 Da | – | – | decrease in potency relative to C3A (CypE [1]; FP competition with A26-Fl against CypE): 16 fold; IC50 (CypE [2]; read-out: IC50^CypE): 1000 nM
did not inhibit CypD | no substantial inhibition profile | C[N+]1=C(/C=C/C=C/C=C2\N(CCCCCC(=O)NCCNC(=O)[C@H]3CCNC(=O)/C=C/C(=O)N4CCC[C@@](Cc5ccccc5)(C4)C(=O)N[C@H](Cc4ccc(-c5ccc(C(CC(=O)O)CC(=O)O)cc5)cc4)C(=O)NCc4ccccc4CC(=O)N3)c3ccccc3C2(C)C)C(C)(C)c2ccccc21 [*B53-Cy5] | – | – | – | did not influence calcium retention capacity | poor mitochondrial localization and fluorescence | –
did not inhibit CypD | no substantial inhibition profile | C[N+]1=C(/C=C/C=C/C=C2\N(CCCCCC(=O)NCCNC(=O)[C@H]3CCNC(=O)/C=C/C(=O)N4CCC[C@@](Cc5ccccc5)(C4)C(=O)N[C@H](Cc4ccc(-c5ccc(CC(C(=O)O)C(=O)O)cc5)cc4)C(=O)NCc4ccccc4CC(=O)N3)c3ccccc3C2(C)C)C(C)(C)c2ccccc21 [*B52-Cy5] | – | – | – | did not influence calcium retention capacity | poor mitochondrial localization and fluorescence | –
– | – | NC(=O)[C@@H]1CCNC(=O)/C=C/C(=O)N2CCC[C@](Cc3ccccc3)(C2)C(=O)N[C@@H](Cc2ccc(-c3ccc(C=O)c(B(O)O)c3)cc2)C(=O)NCc2ccccc2CC(=O)N1 [Compound C3A] | selectivity for CypE | good selectivity and potency for CypE | 806 Da and 779 Da and 807 Da | – | – | less potent at competing A26-Fl off of CypE K217A compared to wild-type CypE (CypE K217A [5]): 40 fold; Ki (CypE K217A [5]; 0.5 nM A26-Fl, CypE K217A, read-out: K^CypEK217Ai): 3100 nM; binding to CypE K217A compared to wild-type (in words) (CypE K217A [5]; FP competition with 0.5 nM A26-Fl): significantly attenuated binding; Ki (CypE [1]; 0.5 nM A26-Fl, wild-type CypE, read-out: Ki, inhibition of A26-Fl binding to CypE): 72 nM; more potency for CypE than for other tested cyclophilins (CypE [1]; FP competition with A26-Fl, lysine-containing cyclophilins): > 10 fold; inhibition of CypE K217A compared to wild-type (in words) (CypE K217A [6]): Loss of C3A inhibition potency; less potent at inhibiting K217A prolyl isomerase activity compared to wild-type CypE (CypE K217A [6]): 150 fold; IC50 (CypE K217A [6]; CypE K217A mutant, read-out: IC^CypEK217A50): 2000 nM; IC50 more potent for CypE than for the other ten cyclophilins screened (CypE [2]): 30-750 fold; higher CypE inhibition potency of C3A over C5A (CypE [2]): 75 fold; selectivity for CypE over CypA (CypE [2]): > 100 fold; IC50 (CypE [2]; read-out: IC50 against CypE prolyl isomerase activity): 13 nM
